Values after ≈ are worked out from the molar mass of the structure shown.
Legend:
Format in all cases: functional
Staphylococcus aureus [1] = assay: Bactericidal activity against methicillin-resistant Staphylococcus aureus PU20 expressing constitutive ermC incubated for 20 hrs followed by sub-culturing for 24 hrs in absence of compound
Moraxella catarrhalis [2] = assay: Bacteriostatic activity against erythromycin-susceptible Moraxella catarrhalis 11B366 after 20 hrs by two-fold microbroth dilution method; conditions: 11B366, 20 h
Streptococcus pyogenes [3] = assay: Bacteriostatic activity against Streptococcus pyogenes 12-207 expressing mef after 20 to 24 hrs by two-fold microbroth dilution method
Moraxella catarrhalis [4] = assay: Bactericidal activity against erythromycin-susceptible Moraxella catarrhalis 11B366 incubated for 20 hrs followed by sub-culturing for 24 hrs in absence of compound
Streptococcus pyogenes [5] = assay: Bactericidal activity against Streptococcus pyogenes 12-207 expressing mef incubated for 20 to 24 hrs followed by sub-culturing for 24 hrs in absence of compound
Streptococcus pneumoniae [6] = assay: Bacteriostatic activity against penicillin-susceptible Streptococcus pneumoniae PU09 after 20 to 24 hrs by two-fold microbroth dilution method
Staphylococcus aureus [7] = assay: Bacteriostatic activity against methicillin-resistant Staphylococcus aureus PU20 expressing constitutive ermC after 20 hrs by two-fold microbroth dilution method; conditions: PU20, 20 h
Moraxella catarrhalis [8] = assay: Ratio of MBC to MIC against erythromycin-susceptible Moraxella catarrhalis 11B366
Streptococcus pyogenes [9] = assay: Bactericidal activity against Streptococcus pyogenes 01-968 expressing inducible ermA incubated for 20 to 24 hrs followed by sub-culturing for 24 hrs in absence of compound
Streptococcus pneumoniae [10] = assay: Bacteriostatic activity against […] Streptococcus pneumoniae ATCC 49619 after 20 to 24 hrs by two-fold microbroth dilution method
Streptococcus pyogenes [11] = assay: Bacteriostatic activity against Streptococcus pyogenes 01-968 expressing inducible ermA after 20 to 24 hrs by two-fold microbroth dilution method
Staphylococcus aureus [12] = assay: Ratio of MBC to MIC against methicillin-resistant Staphylococcus aureus PU32 expressing inducible ermA
Staphylococcus aureus [13] = assay: Ratio of MBC to MIC for methicillin-resistant Staphylococcus aureus PU20 expressing constitutive ermC
Staphylococcus aureus [14] = assay: Bacteriostatic activity against methicillin-resistant Staphylococcus aureus PU32 expressing inducible ermA after 20 hrs by two-fold microbroth dilution method; conditions: PU32, 20 h
Haemophilus influenzae [15] = assay: Ratio of MBC to MIC for azithromycin susceptible/ampicillin-resistant Haemophilus influenzae 11P307
Streptococcus pneumoniae [16] = assay: Ratio of MBC to MIC for […] Streptococcus pneumoniae ATCC 49619
Streptococcus pneumoniae [17] = assay: Bactericidal activity against […] Streptococcus pneumoniae ATCC 49619 incubated for 20 to 24 hrs followed by sub-culturing for 24 hrs in absence of compound
Streptococcus pneumoniae [18] = assay: Ratio of MBC to MIC for penicillin-susceptible Streptococcus pneumoniae PU09
Haemophilus influenzae [19] = assay: Bacteriostatic activity against azithromycin-susceptible/ampicillin-resistant Haemophilus influenzae 11P307 after 20 to 24 hrs by two-fold microbroth dilution method
Haemophilus influenzae [20] = assay: Bactericidal activity against azithromycin susceptible/ampicillin-resistant Haemophilus influenzae 11P307 incubated for 20 to 24 hrs followed by sub-culturing for 24 hrs in absence of compound
Streptococcus pneumoniae [21] = assay: Bactericidal activity against penicillin-susceptible Streptococcus pneumoniae PU09 incubated for 20 to 24 hrs followed by sub-culturing for 24 hrs in absence of compound
Streptococcus pyogenes [22] = assay: Ratio of MBC to MIC for Streptococcus pyogenes 01-968 expressing inducible ermA
Staphylococcus aureus [23] = assay: Bactericidal activity against methicillin-resistant Staphylococcus aureus PU32 expressing inducible ermA incubated for 20 hrs followed by sub-culturing for 24 hrs in absence of compound
Streptococcus pyogenes [24] = assay: Ratio of MBC to MIC for Streptococcus pyogenes 12-207 expressing mef
Moraxella catarrhalis [25] = assay: Bacteriostatic activity against erythromycin-susceptible Moraxella catarrhalis 13L332 after 20 hrs by two-fold microbroth dilution method; conditions: 13L332, 20 h
Haemophilus influenzae [26] = assay: Ratio of MBC to MIC against azithromycin-susceptible Haemophilus influenzae ATCC 49247
Moraxella catarrhalis [27] = assay: Ratio of MBC to MIC against erythromycin-susceptible Moraxella catarrhalis 13L332
Haemophilus influenzae [28] = assay: Bactericidal activity against azithromycin-susceptible Haemophilus influenzae ATCC 49247 incubated for 20 to 24 hrs followed by sub-culturing for 24 hrs in absence of compound
Haemophilus influenzae [29] = assay: Bacteriostatic activity against azithromycin-susceptible Haemophilus influenzae ATCC 49247 after 20 to 24 hrs by two-fold microbroth dilution method
Moraxella catarrhalis [30] = assay: Bactericidal activity against erythromycin-susceptible Moraxella catarrhalis 13L332 incubated for 20 hrs followed by sub-culturing for 24 hrs in absence of compound

Compound | MBC (Staphylococcus aureus [1]) [µg/mL] | MIC (Moraxella catarrhalis [2]) [µg/mL] | MIC (Streptococcus pyogenes [3]) [µg/mL] | MBC (Moraxella catarrhalis [4]) [µg/mL] | MBC (Streptococcus pyogenes [5]) [µg/mL] | MIC (Streptococcus pneumoniae [6]) [µg/mL] | MIC (Staphylococcus aureus [7]) [µg/mL] | MBC (Streptococcus pyogenes [9]) [µg/mL] | MIC (Streptococcus pneumoniae [10]) [µg/mL] | MIC (Streptococcus pyogenes [11]) [µg/mL] | Ratio (Staphylococcus aureus [12]) | MIC (Staphylococcus aureus [14]) [µg/mL] | Ratio (Haemophilus influenzae [15]) | MBC (Streptococcus pneumoniae [17]) [µg/mL] | Ratio (Streptococcus pneumoniae [18]) | MIC (Haemophilus influenzae [19]) [µg/mL] | MBC (Haemophilus influenzae [20]) [µg/mL] | MBC (Streptococcus pneumoniae [21]) [µg/mL] | Ratio (Streptococcus pyogenes [22]) | MBC (Staphylococcus aureus [23]) [µg/mL] | other results
CC[C@H]1OC(=O)[C@@](C)(F)C(=O)[C@H](C)[C@@H](O[C@@H]2O[C@H](C)C[C@H](N(C)C)[C@H]2O)[C@](C)(OC)C[C@@H](C)/C(=N\OC/C=C/c2ccc3ncccc3c2)[C@H](C)[C@H]2OC(=O)O[C@@]21C | 64 (≈ 78.6 µM) | 2 (≈ 2.46 µM) | 0.062 (≈ 0.0762 µM) | 2 (≈ 2.46 µM) | > 0.5 | 0.5 (≈ 0.614 µM) | 32 (≈ 39.3 µM) | 1 (≈ 1.23 µM) | ≤ 0.008 | 0.25 (≈ 0.307 µM) | >8 | 1 (≈ 1.23 µM) | >8 | 0.016 (≈ 0.0197 µM) | 2 | 8 (≈ 9.83 µM) | > 64 | 1 (≈ 1.23 µM) | 4 | > 8 | Ratio (Moraxella catarrhalis [8]): 1; Ratio (Staphylococcus aureus [13]): 2; Ratio (Streptococcus pneumoniae [16]): >=2; Ratio (Streptococcus pyogenes [24]): >8
CC[C@H]1OC(=O)[C@@](C)(F)C(=O)[C@H](C)[C@@H](O[C@@H]2O[C@H](C)C[C@H](N(C)C)[C@H]2O)[C@](C)(OC)C[C@@H](C)/C(=N\OC/C=C/c2cncc(C(N)=O)c2)[C@H](C)[C@H]2OC(=O)O[C@@]21C | > 256 | – | – | – | – | 0.25 (≈ 0.31 µM) | > 256 | > 0.5 | 0.062 (≈ 0.0768 µM) | 0.062 (≈ 0.0768 µM) | 8 | 1 (≈ 1.24 µM) | 1 | 0.125 (≈ 0.155 µM) | 2 | 16 (≈ 19.8 µM) | 16 (≈ 19.8 µM) | 0.5 (≈ 0.62 µM) | >8 | 8 (≈ 9.91 µM) | MIC (Moraxella catarrhalis [25]): 0.062 µg/mL (≈ 0.0768 µM); Ratio (Haemophilus influenzae [26]): 2; Ratio (Moraxella catarrhalis [27]): >8; MBC (Haemophilus influenzae [28]): 32 µg/mL (≈ 39.7 µM); MIC (Haemophilus influenzae [29]): 16 µg/mL (≈ 19.8 µM); MBC (Moraxella catarrhalis [30]): > 0.5 µg/mL
CC[C@H]1OC(=O)[C@@](C)(F)C(=O)[C@H](C)[C@@H](O[C@@H]2O[C@H](C)C[C@H](N(C)C)[C@H]2O)[C@](C)(OC)C[C@@H](C)/C(=N\OC/C=C/c2cncc(N)c2)[C@H](C)[C@H]2OC(=O)O[C@@]21C | > 256 | – | – | – | – | 0.5 (≈ 0.642 µM) | > 256 | > 0.5 | 0.125 (≈ 0.16 µM) | 0.062 (≈ 0.0796 µM) | >8 | 0.5 (≈ 0.642 µM) | 2 | 0.25 (≈ 0.321 µM) | 2 | 16 (≈ 20.5 µM) | 32 (≈ 41.1 µM) | 1 (≈ 1.28 µM) | >8 | > 4 | MIC (Moraxella catarrhalis [25]): 0.031 µg/mL (≈ 0.0398 µM); Ratio (Haemophilus influenzae [26]): 1; Ratio (Moraxella catarrhalis [27]): >8; MBC (Haemophilus influenzae [28]): 32 µg/mL (≈ 41.1 µM); MIC (Haemophilus influenzae [29]): 32 µg/mL (≈ 41.1 µM); MBC (Moraxella catarrhalis [30]): > 0.25 µg/mL
CC[C@H]1OC(=O)[C@H](C)C(=O)[C@H](C)[C@@H](O[C@@H]2O[C@H](C)C[C@H](N(C)C)[C@H]2O)[C@](C)(OC)C[C@@H](C)/C(=N\OC/C=C/c2cnc3ccccc3c2)[C@H](C)[C@H]2OC(=O)O[C@@]21C | 32 (≈ 40.2 µM) | 2 (≈ 2.51 µM) | 0.016 (≈ 0.0201 µM) | 2 (≈ 2.51 µM) | > 0.125 | 0.25 (≈ 0.314 µM) | 32 (≈ 40.2 µM) | > 0.5 | ≤ 0.008 | 0.062 (≈ 0.0779 µM) | >8 | 1 (≈ 1.26 µM) | >=4 - 8 | 0.031 (≈ 0.0389 µM) | 2 | 8 to 32 (≈ 10.1 to 40.2 µM) | 64 to 128 (≈ 80.4 to 161 µM) | 0.5 (≈ 0.628 µM) | >8 | > 8 | Ratio (Moraxella catarrhalis [8]): 1; Ratio (Haemophilus influenzae [26]): >4; MBC (Haemophilus influenzae [28]): > 256 µg/mL; Ratio (Staphylococcus aureus [13]): 1; MIC (Haemophilus influenzae [29]): 64 µg/mL (≈ 80.4 µM); Ratio (Streptococcus pneumoniae [16]): >=4; Ratio (Streptococcus pyogenes [24]): >8
CC[C@H]1OC(=O)[C@H](C)C(=O)[C@H](C)[C@@H](O[C@@H]2O[C@H](C)C[C@H](N(C)C)[C@H]2O)[C@](C)(OC)C[C@@H](C)C(=O)[C@H](C)[C@H]2N(CCCCn3cnc(-c4cccnc4)c3)C(=O)O[C@]12C [TELITHROMYCIN] | > 256 | 0.25 (≈ 0.308 µM) | 0.5 (≈ 0.616 µM) | 0.25 (≈ 0.308 µM) | 1 (≈ 1.23 µM) | 0.25 (≈ 0.308 µM) | > 256 | 0.125 to 0.5 (≈ 0.154 to 0.616 µM) | 0.016 to 0.031 (≈ 0.0197 to 0.0382 µM) | 0.062 (≈ 0.0764 µM) | >8 | 0.125 to 0.25 (≈ 0.154 to 0.308 µM) | 1 - 4 | 0.031 (≈ 0.0382 µM) | 2 - 4 | 1 to 4 (≈ 1.23 to 4.93 µM) | 4 (≈ 4.93 µM) | 0.5 to 1 (≈ 0.616 to 1.23 µM) | 2 - 8 | 1 to 2 (≈ 1.23 to 2.46 µM) | MIC (Moraxella catarrhalis [25]): 0.125 µg/mL (≈ 0.154 µM); Ratio (Moraxella catarrhalis [8]): 1; Ratio (Haemophilus influenzae [26]): 1; Ratio (Moraxella catarrhalis [27]): 4; MBC (Haemophilus influenzae [28]): 8 µg/mL (≈ 9.85 µM); MIC (Haemophilus influenzae [29]): 8 µg/mL (≈ 9.85 µM); Ratio (Streptococcus pneumoniae [16]): 1 - 2; MBC (Moraxella catarrhalis [30]): 0.5 µg/mL (≈ 0.616 µM); Ratio (Streptococcus pyogenes [24]): 2
CC[C@H]1OC(=O)[C@H](C)[C@@H](O[C@H]2C[C@@](C)(OC)[C@@H](O)[C@H](C)O2)[C@H](C)[C@@H](O[C@@H]2O[C@H](C)C[C@H](N(C)C)[C@H]2O)[C@](C)(OC)C[C@@H](C)C(=O)[C@H](C)[C@@H](O)[C@]1(C)O [CLARITHROMYCIN] | > 256 | 0.125 (≈ 0.167 µM) | 16 (≈ 21.4 µM) | 0.25 (≈ 0.334 µM) | 32 (≈ 42.8 µM) | 4 (≈ 5.35 µM) | > 256 | > 8 | 0.031 to 0.062 (≈ 0.0414 to 0.0829 µM) | 1 (≈ 1.34 µM) | >2 - 8 | 8 to 32 (≈ 10.7 to 42.8 µM) | 2 - 8 | 0.062 to 0.125 (≈ 0.0829 to 0.167 µM) | 2 | 1 to 8 (≈ 1.34 to 10.7 µM) | 8 to 16 (≈ 10.7 to 21.4 µM) | 8 (≈ 10.7 µM) | >8 | 16 to 256 (≈ 21.4 to 342 µM) | MIC (Moraxella catarrhalis [25]): 0.031 µg/mL (≈ 0.0414 µM); Ratio (Moraxella catarrhalis [8]): 2; Ratio (Haemophilus influenzae [26]): 2; Ratio (Moraxella catarrhalis [27]): 4; MBC (Haemophilus influenzae [28]): 32 µg/mL (≈ 42.8 µM); MIC (Haemophilus influenzae [29]): 16 µg/mL (≈ 21.4 µM); MBC (Moraxella catarrhalis [30]): 0.125 µg/mL (≈ 0.167 µM); Ratio (Streptococcus pyogenes [24]): 2
CC[C@H]1OC(=O)[C@@](C)(F)C(=O)[C@H](C)[C@@H](O[C@@H]2O[C@H](C)C[C@H](N(C)C)[C@H]2O)[C@](C)(OC)C[C@@H](C)/C(=N\OC/C=C/c2cnc3ccccc3c2)[C@H](C)[C@H]2OC(=O)O[C@@]21C | 256 (≈ 315 µM) | 2 (≈ 2.46 µM) | 0.062 (≈ 0.0762 µM) | 2 (≈ 2.46 µM) | > 0.5 | 0.5 (≈ 0.614 µM) | 64 (≈ 78.6 µM) | 2 (≈ 2.46 µM) | ≤ 0.008 | 0.25 (≈ 0.307 µM) | >8 | 2 (≈ 2.46 µM) | >8 | 0.062 (≈ 0.0762 µM) | 2 | 8 (≈ 9.83 µM) | > 64 | 1 (≈ 1.23 µM) | 8 | > 16 | Ratio (Moraxella catarrhalis [8]): 1; Ratio (Staphylococcus aureus [13]): 4; Ratio (Streptococcus pneumoniae [16]): >=8; Ratio (Streptococcus pyogenes [24]): >8
